Laboratory results taken from patent US20260028354A1, “TETRAHYDRONAPHTHALENE DERIVATIVES AS ESTROGEN RECEPTOR DEGRADERS” (REGENT OF THE UNIVERSITY OF MICHIGAN, priority 2022, published 2026).
Where two headings read alike, the source gives them in different places. Each block holds one molecule with its values, some of them ahead of it.

Columns and labels:
ER in MCF-7 cells = ER in MCF-7 cells (Homo sapiens (Human), UniProt P03372); test: In-cell Western (ICW) ER degradation assay in MCF-7 cells; assay type: cell-based; settings: for DC50: MCF-7, ER degradation, read-out: MCF7 DC50
CRBN/DDB1 = CRBN/DDB1 (Homo sapiens (Human), UniProt Q96SW2); assay type: binding; settings: His tagged CRBN+DDB1, Cy5-labeled Thalidomide probe, one hour; read-out: CRBN HTRF IC50
Experimental: The binding potency was determined using HTRF assay technology (Perkin Elmer). Compounds were serially diluted in DMSO and […] volume was transferred to white 384-well plate.

[1] = Cell growth assay (WST-8) for "B" compounds; assay type: cell-based; settings: T47D, read-out: Cell growth Inhibition in T47D cell line IC50
Outline: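 Cells seeded at 1500/well overnight, then exposed to compounds for 4 days. 10% WST-8 added for 2.5 h at 37 °C and absorbance read at 450 nm. Growth given as absorbance relative to vehicle control, from three repeats.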

ER = ER (Homo sapiens (Human), UniProt P03372); test: In-cell western blot analysis of ER for "B" compounds; assay type: cell-based; settings: 16 hours, read-out: ICW DC50
Outline: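 In-cell western: fixed cells stained with primary antibodies (2 h, RT), then anti-rabbit-680 and anti-mouse-800 secondaries (1:1000, 1 h, RT), imaged on a LI-COR plate reader. Relative ER level in treated wells expressed against untreated and DMSO-treated wells set as 100%.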

[2] = MCF7, MCF-7, maximal ER degradation, 16 hrs treatment, read-out: MCF7 Dmax
[3] = MCF7, read-out: MCF7 Dmax, MCF-7, maximal ER degradation, 16 hrs treatment

Sequence of ER (P03372 whole entry): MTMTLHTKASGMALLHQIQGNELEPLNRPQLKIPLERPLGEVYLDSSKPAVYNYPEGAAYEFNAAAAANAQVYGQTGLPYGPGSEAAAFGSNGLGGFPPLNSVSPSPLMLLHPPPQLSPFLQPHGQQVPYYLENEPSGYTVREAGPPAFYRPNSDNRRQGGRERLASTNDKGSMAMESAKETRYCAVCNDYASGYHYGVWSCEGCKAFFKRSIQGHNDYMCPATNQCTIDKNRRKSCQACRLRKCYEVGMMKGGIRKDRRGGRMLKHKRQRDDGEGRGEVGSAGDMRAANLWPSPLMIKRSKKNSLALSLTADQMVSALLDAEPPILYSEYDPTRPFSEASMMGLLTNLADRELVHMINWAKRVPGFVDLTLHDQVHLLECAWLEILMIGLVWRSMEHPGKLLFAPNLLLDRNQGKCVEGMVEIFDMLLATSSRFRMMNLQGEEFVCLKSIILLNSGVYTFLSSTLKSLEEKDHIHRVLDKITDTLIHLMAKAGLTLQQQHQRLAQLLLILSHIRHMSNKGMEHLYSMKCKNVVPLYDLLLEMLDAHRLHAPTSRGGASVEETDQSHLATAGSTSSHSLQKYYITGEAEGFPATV
Sequence of ER in MCF-7 cells (P03372 whole entry): as above
Sequence of CRBN/DDB1 (Q96SW2 whole entry, species assumed): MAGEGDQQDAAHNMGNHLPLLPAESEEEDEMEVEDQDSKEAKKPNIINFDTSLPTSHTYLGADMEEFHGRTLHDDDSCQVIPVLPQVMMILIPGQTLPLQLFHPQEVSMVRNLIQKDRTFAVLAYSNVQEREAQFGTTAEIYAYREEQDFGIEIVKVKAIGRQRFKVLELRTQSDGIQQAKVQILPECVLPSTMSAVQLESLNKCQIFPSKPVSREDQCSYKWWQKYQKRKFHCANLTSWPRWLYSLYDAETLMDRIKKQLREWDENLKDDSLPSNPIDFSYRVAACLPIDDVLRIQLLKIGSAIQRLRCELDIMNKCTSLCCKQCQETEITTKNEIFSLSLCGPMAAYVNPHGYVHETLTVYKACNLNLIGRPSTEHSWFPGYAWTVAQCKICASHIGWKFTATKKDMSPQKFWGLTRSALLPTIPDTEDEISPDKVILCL
Sequence of CRBN/DDB1 (Q16531 whole entry partner, species assumed): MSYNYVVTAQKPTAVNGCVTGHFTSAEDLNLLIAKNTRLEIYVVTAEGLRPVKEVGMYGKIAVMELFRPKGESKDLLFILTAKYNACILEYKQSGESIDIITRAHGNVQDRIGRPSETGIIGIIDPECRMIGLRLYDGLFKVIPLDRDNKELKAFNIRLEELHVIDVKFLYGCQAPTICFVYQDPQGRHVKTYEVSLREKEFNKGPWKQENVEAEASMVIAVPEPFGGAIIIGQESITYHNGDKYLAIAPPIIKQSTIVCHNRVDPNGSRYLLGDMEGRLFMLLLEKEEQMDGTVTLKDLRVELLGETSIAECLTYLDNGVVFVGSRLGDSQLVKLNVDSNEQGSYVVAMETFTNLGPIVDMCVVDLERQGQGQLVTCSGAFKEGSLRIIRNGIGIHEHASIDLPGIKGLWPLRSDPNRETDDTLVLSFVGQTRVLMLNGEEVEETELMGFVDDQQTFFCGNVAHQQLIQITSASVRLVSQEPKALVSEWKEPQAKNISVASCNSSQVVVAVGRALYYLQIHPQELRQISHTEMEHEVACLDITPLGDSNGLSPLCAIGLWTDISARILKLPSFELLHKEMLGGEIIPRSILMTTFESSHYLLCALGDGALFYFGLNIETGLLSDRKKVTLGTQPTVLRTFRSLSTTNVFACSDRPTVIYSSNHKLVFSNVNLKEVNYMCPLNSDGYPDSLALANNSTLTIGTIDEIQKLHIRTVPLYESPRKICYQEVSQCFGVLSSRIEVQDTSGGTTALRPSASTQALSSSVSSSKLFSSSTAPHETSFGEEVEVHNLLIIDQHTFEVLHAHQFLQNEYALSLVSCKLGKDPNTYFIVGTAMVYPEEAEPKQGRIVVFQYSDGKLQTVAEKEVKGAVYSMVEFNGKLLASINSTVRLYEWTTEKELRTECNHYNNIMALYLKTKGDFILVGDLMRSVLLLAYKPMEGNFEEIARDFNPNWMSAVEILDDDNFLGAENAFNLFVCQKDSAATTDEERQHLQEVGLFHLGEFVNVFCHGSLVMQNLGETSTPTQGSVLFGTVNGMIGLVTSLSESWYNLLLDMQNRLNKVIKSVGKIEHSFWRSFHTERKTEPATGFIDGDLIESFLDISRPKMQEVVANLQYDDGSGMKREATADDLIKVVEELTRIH

Compound: O=C1CC[C@H](N2Cc3c(ccc4c3OC[C@H]3CN(CC5CCC6(CC5)CN(c5ccc([C@H]7c8ccc(O)cc8CC[C@H]7c7ccccc7)cc5F)C6)CCN43)C2=O)C(=O)N1 (single isomer, unassigned) [Compound A159]
- Dmax (ER in MCF-7 cells; [2]): 25 to 50%
- DC50 (ER in MCF-7 cells; 16 hrs treatment): 10 to 100 nM
- IC50 (CRBN/DDB1): 50 to 500 nM

Compound: O=C1CC[C@H](N2Cc3cc4c(cc3C2=O)OC[C@@H]2CN(CC3CC5(CCN(c6ccc([C@@H]7c8ccc(O)cc8CC[C@@H]7c7ccccc7)cn6)CC5)C3)CCN42)C(=O)N1 (single isomer, unassigned) [Compound A121]
- Dmax (ER in MCF-7 cells; [2]): > 75%
- DC50 (ER in MCF-7 cells; 16 hrs treatment): 1 to 10 nM
- IC50 (CRBN/DDB1): 500 to 5000 nM

Compound: O=C1CC[C@H](N2Cc3c(ccc4c3OCC43CCN(C[C@H]4COC5(C4)CN(c4ccc([C@@H]6c7ccc(O)cc7CC[C@@H]6c6ccccc6)cc4)C5)CC3)C2=O)C(=O)N1 [Compound A74, (S)-3-(1′-(((S)-2-(4-((1R,2S)-6-hydroxy-2-phenyl-1,2,3,4-tetrahydronaphthalen-1-yl)phenyl)-5-oxa-2-azaspiro[3,4]octan-7-yl)methyl)-6-oxo-6,8-dihydro-2H,7H-spiro[furo[2,3-e]isoindole-3,4′-piperidin]-7-yl)piperidine-2,6-dione]
- Dmax (ER in MCF-7 cells; [3]): 50 to 75%
- DC50 (ER in MCF-7 cells; 16 hrs treatment): < 1 nM
- IC50 (CRBN/DDB1): < 50 nM

Compound: O=C1CC[C@H](N2Cc3c(ccc4c3OCC43CCN(C[C@@H]4COC5(C4)CN(c4ccc([C@@H]6c7ccc(O)cc7CC[C@@H]6c6ccccc6)cc4)C5)CC3)C2=O)C(=O)N1 [Compound A75, (S)-3-(1′-(((R)-2-(4-((1R,2S)-6-hydroxy-2-phenyl-1,2,3,4-tetrahydronaphthalen-1-yl)phenyl)-5-oxa-2-azaspiro[3,4]octan-7-yl)methyl)-6-oxo-6,8-dihydro-2H,7H-spiro[furo[2,3-e]isoindole-3,4′-piperidin]-7-yl)piperidine-2,6-dione]
- Dmax (ER in MCF-7 cells; [3]): 50 to 75%
- DC50 (ER in MCF-7 cells; 16 hrs treatment): < 1 nM
- IC50 (CRBN/DDB1): < 50 nM

Compound: COc1cc([C@H]2c3ccc(O)cc3CC[C@H]2c2ccccc2)c(F)cc1N1CCC2(CC1)CC(CN1CCN3c4ccc5c(c4OC[C@H]3C1)CN([C@H]1CCC(=O)NC1=O)C5=O)C2 [Compound A117, (S)-3-((R)-7-((7-(5-fluoro-4-((1R,2R)-6-hydroxy-2-phenyl-1,2,3,4-tetrahydronaphthalen-1-yl)-2-methoxyphenyl)-7-aza-spiro[3.5]nonan-2-yl)methyl)-1-oxo-1,3,5,5a,6,7,8,9-octa-hydro-2H-pyrazino[1′,2′:4,5] [1,4]oxazino[2,3-e]isoindol-2-yl)piperidine-2,6-dione]
- Dmax (ER in MCF-7 cells; [2]): 25 to 50%
- DC50 (ER in MCF-7 cells; 16 hrs treatment): 10 to 100 nM
- IC50 (CRBN/DDB1): < 50 nM

Compound: O=C1CC[C@H](N2Cc3cc4c(cc3C2=O)OC[C@@H]2CN(CC3CC5(CCN(c6ccc([C@@H]7c8ccc(O)cc8CC[C@@H]7c7ccccc7)cc6F)CC5)C3)CCN42)C(=O)N1 (single isomer, unassigned) [Compound A150]
- Dmax (ER in MCF-7 cells; [2]): 50 to 75%
- DC50 (ER in MCF-7 cells; 16 hrs treatment): 10 to 100 nM
- IC50 (CRBN/DDB1): 500 to 5000 nM

Compound: O=C1CC[C@H](N2Cc3cc4c(cc3C2=O)OC[C@@H]2CN(CC3CCC5(CC3)CN(c3ccc([C@H]6c7ccc(O)cc7CC[C@H]6c6ccccc6)cc3F)C5)CCN42)C(=O)N1 (single isomer, unassigned) [Compound A151]
- Dmax (ER in MCF-7 cells; [2]): 25 to 50%
- DC50 (ER in MCF-7 cells; 16 hrs treatment): 10 to 100 nM
- IC50 (CRBN/DDB1): 500 to 5000 nM

Compound: O=C1CC[C@H](N2Cc3c(ccc4c3OC[C@H]3CN(CCCOC5CN(c6ccc([C@@H]7c8ccc(O)cc8CC[C@@H]7c7ccccc7)cc6)C5)CCN43)C2=O)C(=O)N1 [Compound A78, (S)-3-((R)-7-(3-((1-(4-((1R,2S)-6-hydroxy-2-phenyl-1,2,3,4-tetrahydronaphthalen-1-yl)-phenyl)azetidin-3-yl)oxy)prop-yl)-1-oxo-1,3,5,5a,6,7,8,9-octa-hydro-2H-pyrazino[1′,2′:4,5] [1,4]oxazino[2,3-e]isoindol-2-yl)piperidine-2,6-dione]
- Dmax (ER in MCF-7 cells; [2]): 50 to 75%
- DC50 (ER in MCF-7 cells; 16 hrs treatment): < 1 nM
- IC50 (CRBN/DDB1): < 50 nM

Compound: O=C1CC[C@H](N2Cc3cc4c(cc3C2=O)OC[C@@H]2CN(CC3CCC5(CC3)CN(c3ncc([C@H]6c7ccc(O)cc7CC[C@H]6c6ccccc6)cn3)C5)CCN42)C(=O)N1 (single isomer, unassigned) [Compound A157]
- Dmax (ER in MCF-7 cells; [2]): < 25%
- DC50 (ER in MCF-7 cells; 16 hrs treatment): 10 to 100 nM
- IC50 (CRBN/DDB1): 500 to 5000 nM

Compound: O=C1CC[C@H](N2Cc3c(ccc4c3OCC43CCN(CC4CCN(c5ccc([C@@H]6c7ccc(O)cc7CC[C@@H]6c6ccccc6)cc5)CC4)CC3)C2=O)C(=O)N1 [Compound A70, (S)-3-(1′-((1-(4-((1R,2S)-6-hydroxy-2-phenyl-1,2,3,4-tetrahydronaphthalen-1-yl)-phenyl)piperidin-4-yl)methyl)-6-oxo-6,8-dihydro-2H,7H-spiro[furo[2,3-e]isoindole-3,4′-piperidin]-7-yl)piperidine-2,6-dione]
- Dmax (ER in MCF-7 cells; [3]): 50 to 75%
- DC50 (ER in MCF-7 cells; 16 hrs treatment): < 1 nM
- IC50 (CRBN/DDB1): < 50 nM

Compound: COc1cc(N2CCC(CN3CCC(c4ccc(N[C@H]5CCC(=O)NC5=O)c(F)c4)CC3)CC2)c(F)cc1[C@@H]1c2ccc(O)cc2CC[C@@H]1c1ccccc1 [Compound A118, (S)-3-((2-fluoro-4-(1-((1-(2-fluoro-4-((1S,2S)-6-hydroxy-2-phenyl-1,2,3,4-tetrahydronaph-thalen-1-yl)-5-methoxyphenyl)-piperidin-4-yl)methyl)piper-idin-4-yl)phenyl)amino)piper-idine-2,6-dione]
- Dmax (ER in MCF-7 cells; [2]): 25 to 50%
- DC50 (ER in MCF-7 cells; 16 hrs treatment): < 1 nM
- IC50 (CRBN/DDB1): 500 to 5000 nM

Compound: O=C1CC[C@H](N2Cc3c(ccc4c3OCC43CCN(CC4CC5(CCN(c6ncc([C@H]7c8ccc(O)cc8CC[C@H]7c7ccccc7)cn6)CC5)C4)CC3)C2=O)C(=O)N1 [Compound A141, (S)-3-(1′-((7-(5-((1R,2R)-6-hydroxy-2-phenyl-1,2,3,4-tetrahydronaphthalen-1-yl)pyrimidin-2-yl)-7-azaspiro[3.5]nonan-2-yl)methyl)-6-oxo-6,8-dihydro-2H,7H-spiro[furo[2,3-e]isoindole-3,4′-piperidin]-7-yl)piperidine-2,6-dione]
- Dmax (ER in MCF-7 cells; [3]): 50 to 75%
- DC50 (ER in MCF-7 cells; 16 hrs treatment): 1 to 10 nM
- IC50 (CRBN/DDB1): < 50 nM

Compound: O=C1CC[C@H](N2Cc3c(ccc4c3OC[C@H]3CN(CC5CCC6(CC5)CN(c5ccc([C@@H]7c8ccc(O)cc8CC[C@@H]7c7ccccc7)cc5F)C6)CCN43)C2=O)C(=O)N1 (single isomer, unassigned) [Compound A152]
- Dmax (ER in MCF-7 cells; [2]): 50 to 75%
- DC50 (ER in MCF-7 cells; 16 hrs treatment): 1 to 10 nM
- IC50 (CRBN/DDB1): 500 to 5000 nM

- IC50 (CRBN/DDB1): 500 to 5000 nM
Compound: O=C1CC[C@H](N2Cc3cc4c(cc3C2=O)OC[C@@H]2CN(CC3CCC5(CC3)CN(c3ccc([C@@H]6c7ccc(O)cc7CC[C@@H]6c6ccccc6)cc3)C5)CCN42)C(=O)N1 (single isomer, unassigned) [Compound A63]

- DC50 (ER): 10 to 100 nM
Compound: O=C1CCC(N2Cc3cc4c(cc3C2=O)OC[C@@H]2CN(C(=O)CN3CCC5(CC3)CCN(c3ncc([C@@H]6c7ccc(O)cc7CC[C@@H]6c6ccccc6)cn3)CC5)CCN42)C(=O)N1 (stereo partly drawn) [Compound B159, 3-((S)-3-(2-(9-(5-((1S,2S)-6-hydroxy-2-phenyl-1,2,3,4-tetrahydronaphthalen-1-yl)pyrimidin-2-yl)-3,9-diazaspiro[5.5]undecan-3-yl)acetyl)-8-oxo-1,2,3,4,4a,5,8,10-octahydro-9H-pyrazino[1′,2′:4,5][1,4]oxazino[2,3-f]isoindol-9-yl)piperidine-2,6-dione]
- IC50 ([1]; T47D cell line): 1 to 10 nM

- DC50 (ER): < 10 nM
Compound: O=C1CCC(N2Cc3cc4c(cc3C2=O)OC[C@@H]2CN(CC3COC5(CCN(c6ccc([C@@H]7c8ccc(O)cc8CC[C@@H]7c7ccccc7)cc6)CC5)OC3)CCN42)C(=O)N1 (stereo partly drawn) [Compound B242, 3-((S)-3-((9-(4-((1R,2S)-6-hydroxy-2-phenyl-1,2,3,4-tetrahydronaphthalen-1-yl)phenyl)-1,5-dioxa-9-azaspiro[5.5]undecan-3-yl)methyl)-8-oxo-1,2,3,4,4a,5,8,10-octahydro-9H-pyrazino[1′,2′:4,5][1,4]oxazino[2,3-f]isoindol-9-yl)piperidine-2,6-dione]
- IC50 ([1]; T47D cell line): < 1 nM

Compound: O=C1CCC(N2Cc3c(ccc4c3OCC43CCN(CC(=O)N4CC5(CCN(c6ccc([C@@H]7c8ccc(O)cc8CC[C@@H]7c7ccccc7)cc6)CC5)C4)CC3)C2=O)C(=O)N1 (stereo partly drawn) [Compound B171, 3-(1′-(2-(7-(4-((1R,2S)-6-hydroxy-2-phenyl-1,2,3,4-tetrahydronaphthalen-1-yl)phenyl)-2,7-diazaspiro[3.5]nonan-2-yl)-2-oxoethyl)-6-oxo-6,8-dihydro-2H,7H-spiro[furo[2,3-e]isoindole-3,4′-piperidin]-7-yl)piperidine-2,6-dione]
- IC50 [1]: < 1 nM
- DC50 (ER): < 10 nM

- DC50 (ER): < 10 nM
Compound: O=C1CCC(N2Cc3c(ccc4c3OC[C@H]3CN(CC5COC6(C5)CN(c5ccc([C@@H]7c8ccc(O)cc8CC[C@@H]7c7ccccc7)cc5)C6)CCN43)C2=O)C(=O)N1 (stereo partly drawn) [Compound B230, 3-((5aR)-7-((2-(4-((1R,2S)-6-hydroxy-2-phenyl-1,2,3,4-tetrahydronaphthalen-1-yl)phenyl)-5-oxa-2-azaspiro[3.4]octan-7-yl)methyl)-1-oxo-1,3,5,5a,6,7,8,9-octahydro-2H-pyrazino[1′,2′:4,5][1,4]oxazino[2,3-e]isoindol-2-yl)piperidine-2,6-dione]
- IC50 ([1]; T47D cell line): < 1 nM
